Measured values reported in US20200331925A1, “HETEROCYCLIC COMPOUNDS FOR THE TREATMENT OF ABNORMAL CELLULAR PROLIFERATION” (G1 Therapeutics, Inc., priority 2018, published 2020).

Columns and labels:
Type in all cases: biochemical
CDK1/Cyclin B1 = CDK1/Cyclin B1 (Homo sapiens, UniProt P06493); test: CDK1/Cyclin B1 kinase assay (Nanosyn, Caliper microfluidic); settings: 12-point dose-response, ATP at Km (40 μM), 3 hr
Protocol: (§1) Selected compounds disclosed herein were tested in kinase assays by Nanosyn (Santa Clara, Calif.) to determine their inhibitory effect on selected CDKs. The assays were performed using microfluidic kinase detection technology (Caliper Assay Platform). The compounds were tested in 12-point dose-response format in singlicate at Kmfor ATP. Phosphoacceptor substrate peptide concentration used was 1 μM for all assays and Staurosporine was used as the reference compound for all assays. Specifics of each assay are as described below: CDK1/Cyclin B1: Enzyme concentration: 0.08 nM; ATP concentration: 40 μM; Incubation time: 3 hr.

CDK2/Cyclin A = CDK2/Cyclin A (Homo sapiens, UniProt P24941); test: CDK2/Cyclin A kinase assay (Nanosyn, Caliper microfluidic); settings: 12-point dose-response, ATP at Km (50 μM), 3 hr
Protocol: as §1, with “CDK2/Cyclin A:” for “CDK1/Cyclin B1:”, “0.1” for “0.08”, “50” for “40”

CDK2/Cyclin E = CDK2/Cyclin E (Homo sapiens, UniProt P24941); test: CDK2/Cyclin E kinase assay (Nanosyn, Caliper microfluidic); settings: 12-point dose-response, ATP at Km (100 μM), 3 hr
Protocol: as §1, with “CDK2/Cyclin E:” for “CDK1/Cyclin B1:”, “0.15” for “0.08”, “100” for “40”

CDK3/Cyclin E = CDK3/Cyclin E (Homo sapiens, UniProt Q00526); test: CDK3/Cyclin E kinase assay (Nanosyn, Caliper microfluidic); settings: 12-point dose-response, ATP at Km (400 μM), 3 hr
Protocol: as §1, with “CDK3/Cyclin E:” for “CDK1/Cyclin B1:”, “1” for “0.08”, “400” for “40”

CDK4/Cyclin D1 = CDK4/Cyclin D1 (Homo sapiens, UniProt P11802); test: CDK4/Cyclin D1 kinase assay (Nanosyn, Caliper microfluidic); settings: 12-point dose-response, ATP at Km (200 μM), 3 hr; Table 4
Protocol: as §1, with “CDK4/Cyclin D1:” for “CDK1/Cyclin B1:”, “1” for “0.08”, “200” for “40”

CDK5/p35 = CDK5/p35 (Homo sapiens, UniProt Q00535); test: CDK5/p35 kinase assay (Nanosyn, Caliper microfluidic); settings: 12-point dose-response, ATP at Km (20 μM), 3 hr
Protocol: as §1, with “CDK5/p35:” for “CDK1/Cyclin B1:”, “0.05” for “0.08”, “20” for “40”

CDK5/p25 = CDK5/p25 (Homo sapiens, UniProt Q00535); test: CDK5/p25 kinase assay (Nanosyn, Caliper microfluidic); settings: 12-point dose-response, ATP at Km (20 μM), 3 hr
Protocol: as §1, with “CDK5/p25:” for “CDK1/Cyclin B1:”, “0.1” for “0.08”, “20” for “40”

CDK6/Cyclin D3 = CDK6/Cyclin D3 (Homo sapiens, UniProt Q00534); test: CDK6/Cyclin D3 kinase assay (Nanosyn, Caliper microfluidic); settings: 12-point dose-response, ATP at Km (300 μM), 3 hr
Protocol: as §1, with “CDK6/Cyclin D3:” for “CDK1/Cyclin B1:”, “2” for “0.08”, “300” for “40”

CDK7/Cyclin H = CDK7/Cyclin H (Homo sapiens, UniProt P50613); test: CDK7/Cyclin H kinase assay (Nanosyn, Caliper microfluidic); settings: 12-point dose-response, ATP at Km (50 μM), 17 hr
Protocol: as §1, with “CDK7/Cyclin H:” for “CDK1/Cyclin B1:”, “10” for “0.08”, “50” for “40”, “17” for “3”

CDK9/Cyclin T = CDK9/Cyclin T (Homo sapiens, UniProt P50750); test: CDK9/Cyclin T kinase assay (Nanosyn, Caliper microfluidic); settings: 12-point dose-response, ATP at Km (10 μM), 17 hr; Table 5
Protocol: as §1, with “[…]:” for “CDK1/Cyclin B1:”, “5” for “0.08”, “10” for “40”, “17” for “3”

Sequence of CDK9/Cyclin T (P50750 whole entry): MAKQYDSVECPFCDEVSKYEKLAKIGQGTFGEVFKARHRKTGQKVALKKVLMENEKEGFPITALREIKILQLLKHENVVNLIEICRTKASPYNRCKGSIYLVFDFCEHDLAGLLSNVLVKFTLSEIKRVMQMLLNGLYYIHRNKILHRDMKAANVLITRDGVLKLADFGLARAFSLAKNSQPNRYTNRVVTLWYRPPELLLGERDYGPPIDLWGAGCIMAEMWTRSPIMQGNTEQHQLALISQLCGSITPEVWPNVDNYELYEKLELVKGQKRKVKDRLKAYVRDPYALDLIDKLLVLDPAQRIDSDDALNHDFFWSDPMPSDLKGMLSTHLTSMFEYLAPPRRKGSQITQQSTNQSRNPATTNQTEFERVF
Sequence of CDK9/Cyclin T (O60563 whole entry partner): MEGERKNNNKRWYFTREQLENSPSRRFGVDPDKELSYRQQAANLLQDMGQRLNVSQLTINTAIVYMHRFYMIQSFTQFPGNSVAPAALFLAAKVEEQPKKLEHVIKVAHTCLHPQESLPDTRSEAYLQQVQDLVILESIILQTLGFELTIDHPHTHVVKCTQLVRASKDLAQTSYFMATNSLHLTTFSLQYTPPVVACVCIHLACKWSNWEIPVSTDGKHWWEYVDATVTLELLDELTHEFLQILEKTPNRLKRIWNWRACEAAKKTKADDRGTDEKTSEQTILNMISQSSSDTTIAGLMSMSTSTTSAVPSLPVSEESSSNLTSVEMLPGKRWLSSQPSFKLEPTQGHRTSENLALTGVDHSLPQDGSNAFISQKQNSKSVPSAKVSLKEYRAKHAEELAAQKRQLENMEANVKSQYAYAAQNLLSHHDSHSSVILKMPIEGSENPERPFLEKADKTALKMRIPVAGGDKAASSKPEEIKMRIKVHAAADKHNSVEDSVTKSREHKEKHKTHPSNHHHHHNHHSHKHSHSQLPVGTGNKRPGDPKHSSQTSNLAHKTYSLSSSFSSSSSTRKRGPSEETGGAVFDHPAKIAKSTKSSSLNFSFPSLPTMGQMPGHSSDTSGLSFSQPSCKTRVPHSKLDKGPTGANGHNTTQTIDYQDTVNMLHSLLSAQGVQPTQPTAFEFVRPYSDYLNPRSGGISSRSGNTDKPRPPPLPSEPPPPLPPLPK
Sequence of CDK4/Cyclin D1 (P11802 whole entry): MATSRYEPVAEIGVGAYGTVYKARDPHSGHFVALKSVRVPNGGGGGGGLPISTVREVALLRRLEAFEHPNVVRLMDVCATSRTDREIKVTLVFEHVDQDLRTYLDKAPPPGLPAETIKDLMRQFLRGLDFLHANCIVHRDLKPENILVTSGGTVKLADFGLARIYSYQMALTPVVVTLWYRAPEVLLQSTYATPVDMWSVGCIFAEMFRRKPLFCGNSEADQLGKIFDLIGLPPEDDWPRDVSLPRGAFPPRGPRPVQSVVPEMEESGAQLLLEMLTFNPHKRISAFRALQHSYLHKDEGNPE
Sequence of CDK4/Cyclin D1 (P24385 whole entry partner): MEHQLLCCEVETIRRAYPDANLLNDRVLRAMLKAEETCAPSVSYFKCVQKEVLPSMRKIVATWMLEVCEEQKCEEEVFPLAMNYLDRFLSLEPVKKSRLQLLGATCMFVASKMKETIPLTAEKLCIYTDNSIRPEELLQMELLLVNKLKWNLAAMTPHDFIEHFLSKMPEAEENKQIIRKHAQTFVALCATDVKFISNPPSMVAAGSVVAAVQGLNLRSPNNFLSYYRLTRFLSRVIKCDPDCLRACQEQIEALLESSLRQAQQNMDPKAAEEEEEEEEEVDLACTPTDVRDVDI
Sequence of CDK6/Cyclin D3 (Q00534 whole entry): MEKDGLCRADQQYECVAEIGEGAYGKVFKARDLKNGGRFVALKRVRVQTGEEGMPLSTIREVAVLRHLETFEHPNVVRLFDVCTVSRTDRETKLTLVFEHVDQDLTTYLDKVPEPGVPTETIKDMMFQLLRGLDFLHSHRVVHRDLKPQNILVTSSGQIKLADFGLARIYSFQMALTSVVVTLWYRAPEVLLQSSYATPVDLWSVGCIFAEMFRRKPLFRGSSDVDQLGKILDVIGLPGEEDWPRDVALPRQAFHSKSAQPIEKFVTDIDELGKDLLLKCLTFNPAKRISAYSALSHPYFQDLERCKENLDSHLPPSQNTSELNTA
Sequence of CDK6/Cyclin D3 (P30281 whole entry partner): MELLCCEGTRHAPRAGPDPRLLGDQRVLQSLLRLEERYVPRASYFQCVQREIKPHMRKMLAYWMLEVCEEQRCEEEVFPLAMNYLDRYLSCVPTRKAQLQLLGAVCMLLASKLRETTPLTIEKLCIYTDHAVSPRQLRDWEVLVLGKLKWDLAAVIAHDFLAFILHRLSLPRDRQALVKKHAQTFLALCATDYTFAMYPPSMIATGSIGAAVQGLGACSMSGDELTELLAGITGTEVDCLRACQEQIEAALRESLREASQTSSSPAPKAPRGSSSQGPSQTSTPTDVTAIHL
Sequence of CDK7/Cyclin H (P50613 whole entry): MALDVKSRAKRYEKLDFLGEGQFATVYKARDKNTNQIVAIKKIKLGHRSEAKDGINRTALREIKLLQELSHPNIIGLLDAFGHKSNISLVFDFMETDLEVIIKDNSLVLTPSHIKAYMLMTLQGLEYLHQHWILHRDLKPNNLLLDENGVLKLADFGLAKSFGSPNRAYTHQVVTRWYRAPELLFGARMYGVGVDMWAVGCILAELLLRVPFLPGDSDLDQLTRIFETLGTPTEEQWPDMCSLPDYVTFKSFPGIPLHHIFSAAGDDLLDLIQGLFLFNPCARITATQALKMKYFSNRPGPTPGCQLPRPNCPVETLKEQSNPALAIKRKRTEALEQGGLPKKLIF
Sequence of CDK7/Cyclin H (P51946 whole entry partner): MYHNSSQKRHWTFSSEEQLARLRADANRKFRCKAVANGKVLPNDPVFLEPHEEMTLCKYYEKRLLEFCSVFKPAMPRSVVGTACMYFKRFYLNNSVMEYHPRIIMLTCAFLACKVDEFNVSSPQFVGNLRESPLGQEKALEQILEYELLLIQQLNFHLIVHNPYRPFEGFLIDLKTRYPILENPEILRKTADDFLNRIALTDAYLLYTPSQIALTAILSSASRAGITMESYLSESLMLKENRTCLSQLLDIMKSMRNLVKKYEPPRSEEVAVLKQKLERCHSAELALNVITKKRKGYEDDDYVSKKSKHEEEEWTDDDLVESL
Sequence of CDK7/Cyclin H (P51948 whole entry partner): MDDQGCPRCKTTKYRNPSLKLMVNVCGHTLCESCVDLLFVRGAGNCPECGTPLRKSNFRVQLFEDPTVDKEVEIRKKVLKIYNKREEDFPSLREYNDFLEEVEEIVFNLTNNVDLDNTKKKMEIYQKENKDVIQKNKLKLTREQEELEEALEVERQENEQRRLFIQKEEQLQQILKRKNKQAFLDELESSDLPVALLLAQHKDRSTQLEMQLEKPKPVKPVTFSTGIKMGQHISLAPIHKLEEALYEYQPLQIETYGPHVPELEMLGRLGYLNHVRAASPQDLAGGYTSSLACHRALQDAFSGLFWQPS
Sequence of CDK1/Cyclin B1 (P06493 whole entry): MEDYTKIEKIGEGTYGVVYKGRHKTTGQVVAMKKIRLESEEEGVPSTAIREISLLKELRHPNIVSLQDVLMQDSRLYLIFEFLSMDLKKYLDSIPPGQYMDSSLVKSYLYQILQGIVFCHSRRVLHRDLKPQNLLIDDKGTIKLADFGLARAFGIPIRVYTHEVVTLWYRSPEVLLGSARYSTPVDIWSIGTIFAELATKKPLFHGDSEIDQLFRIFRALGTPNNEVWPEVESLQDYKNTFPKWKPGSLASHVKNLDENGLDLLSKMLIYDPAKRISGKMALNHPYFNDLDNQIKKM
Sequence of CDK1/Cyclin B1 (P14635 whole entry partner): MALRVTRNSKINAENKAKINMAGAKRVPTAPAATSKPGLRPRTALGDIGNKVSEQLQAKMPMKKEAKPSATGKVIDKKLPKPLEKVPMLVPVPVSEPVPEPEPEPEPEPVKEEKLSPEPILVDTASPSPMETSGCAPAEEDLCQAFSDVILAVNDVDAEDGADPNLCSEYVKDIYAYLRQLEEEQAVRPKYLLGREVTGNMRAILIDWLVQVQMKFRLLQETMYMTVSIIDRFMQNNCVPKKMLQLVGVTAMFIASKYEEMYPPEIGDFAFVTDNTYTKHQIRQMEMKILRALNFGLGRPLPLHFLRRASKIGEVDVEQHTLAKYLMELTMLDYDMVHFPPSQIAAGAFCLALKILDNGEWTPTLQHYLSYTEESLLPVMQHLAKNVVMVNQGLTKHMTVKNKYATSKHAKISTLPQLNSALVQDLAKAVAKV
Sequence of CDK5/p25 (Q00535 whole entry): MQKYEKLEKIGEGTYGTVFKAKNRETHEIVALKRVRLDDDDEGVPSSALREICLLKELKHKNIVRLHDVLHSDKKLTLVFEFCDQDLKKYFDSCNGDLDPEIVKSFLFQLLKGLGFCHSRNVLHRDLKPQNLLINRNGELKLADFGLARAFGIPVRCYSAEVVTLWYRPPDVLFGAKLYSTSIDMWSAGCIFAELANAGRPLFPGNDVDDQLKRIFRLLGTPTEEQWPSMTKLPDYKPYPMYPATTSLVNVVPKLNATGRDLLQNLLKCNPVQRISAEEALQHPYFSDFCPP
Sequence of CDK5/p25 (Q15078 99-307 partner limits assumed): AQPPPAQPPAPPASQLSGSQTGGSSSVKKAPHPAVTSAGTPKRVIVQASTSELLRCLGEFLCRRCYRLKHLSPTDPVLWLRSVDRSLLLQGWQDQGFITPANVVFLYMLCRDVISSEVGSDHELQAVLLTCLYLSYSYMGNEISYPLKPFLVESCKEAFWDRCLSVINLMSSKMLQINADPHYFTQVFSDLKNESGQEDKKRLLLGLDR

SMILES | IC50 (CDK1/Cyclin B1) | IC50 (CDK2/Cyclin A) | IC50 (CDK2/Cyclin E) | IC50 (CDK3/Cyclin E) | IC50 (CDK4/Cyclin D1) | IC50 (CDK5/p35) | IC50 (CDK5/p25) | IC50 (CDK6/Cyclin D3) | IC50 (CDK7/Cyclin H) | IC50 (CDK9/Cyclin T)
O=C1NCC2(CCCCC2)n2c1cc1cnc(NC(=O)[C@H]3CNCC[C@H]3c3ccccc3)nc12 [Compound 28, (3R,4R)-N-(6′-oxo-7′,8′-dihydro-6′H-spiro[cyclohexane-1,9′-pyrazino[1′,2′:1,5]pyrrolo[2,3-d]pyrimidin]-2′-yl)-4-phenylpiperidine-3-carboxamide] | 93 µM | 67 µM | > 100 µM | > 100 µM | 9 µM | > 100 µM | > 100 µM | > 100 µM | > 100 µM | 0.24 µM
O=C(C[C@@H]1CCCN1)Nc1ncc2cc3n(c2n1)C1(CCCCC1)CNC3=O [Compound 34, (S)-N-(6′-oxo-7′,8′-dihydro-6′H-spiro[cyclohexane-1,9′-pyrazino[1′,2′:1,5]pyrrolo[2,3-d]pyrimidin]-2′-yl)-2-(pyrrolidin-2-yl)acetamide] | 18 µM | 12 µM | 27 µM | 33 µM | 2.9 µM | 29 µM | 52 µM | 8.4 µM | 17 µM | 0.19 µM
O=C1NCC2(CCCCC2)n2c1cc1cnc(N[C@H]3Cc4ccccc4NC3=O)nc12 [Compound 27, (S)-2′-((2-oxo-1,2,3,4-tetrahydroquinolin-3-yl)amino)-7′,8′-dihydro-6′H-spiro[cyclohexane-1,9′-pyrazino[1′,2′:1,5]pyrrolo[2,3-d]pyrimidin]-6′-one] | 8.9 µM | 8 µM | 11 µM | 26 µM | 0.27 µM | 10 µM | 9.6 µM | 0.97 µM | 14 µM | 0.56 µM
O=C1NCC2(CCCCC2)n2c1cc1cnc(N[C@H]3CC[C@H](NC4CCOCC4)CC3)nc12 [Compound 16, 2′-(((1r,4r)-4-((tetrahydro-2H-pyran-4-yl)amino)cyclohexyl)amino)-7′,8′-dihydro-6′H-spiro[cyclohexane-1,9′-pyrazino[1′,2′:1,5]pyrrolo[2,3-d]pyrimidin]-6′-one] | 0.091 µM | 0.11 µM | 0.19 µM | 0.24 µM | 0.013 µM | 0.47 µM | 0.48 µM | 0.072 µM | 0.17 µM | 0.0027 µM
O=C1NCC2(CCCCC2)n2c1cc1cnc(N[C@H]3CCCN[C@@H]3c3ccccc3)nc12 [Compound 10, 2′-(((2R,3S)-2-phenylpiperidin-3-yl)amino)-7′,8′-dihydro-6′H-spiro[cyclohexane-1,9′-pyrazino[1′,2′:1,5]pyrrolo[2,3-d]pyrimidin]-6′-one] | 8.8 µM | 3.6 µM | 5.7 µM | 16 µM | 0.036 µM | 9.7 µM | 11 µM | 1.2 µM | 1.8 µM | 0.08 µM
O=C1NCC2(CCCCC2)n2c1cc1cnc(NC(=O)[C@H]3CNCCN3)nc12 [Compound 36, (R)-N-(6′-oxo-7′,8′-dihydro-6′H-spiro[cyclohexane-1,9′-pyrazino[1′,2′:1,5]pyrrolo[2,3-d]pyrimidin]-2′-yl)piperazine-2-carboxamide] | > 100 µM | 88 µM | > 100 µM | > 100 µM | 9.4 µM | > 100 µM | > 100 µM | 82 µM | > 100 µM | 0.24 µM
NS(=O)(=O)Cc1cccc(Nc2ncc3cc4n(c3n2)C2(CCCCC2)CNC4=O)c1 [Compound 43, (3-((6′-oxo-7′,8′-dihydro-6′H-spiro[cyclohexane-1,9′-pyrazino[1′,2′:1,5]pyrrolo[2,3-d]pyrimidin]-2′-yl)amino)phenyl)methanesulfonamide] | > 100 µM | 99 µM | > 100 µM | > 100 µM | 47 µM | 94 µM | 99 µM | > 100 µM | > 100 µM | 10 µM
CS(=O)(=O)N[C@H]1CC[C@H](Nc2ncc3cc4n(c3n2)C2(CCCCC2)CNC4=O)CC1 [Compound 22, N-((1,4-trans)-4-((6′-oxo-7′,8′-dihydro-6′H-spiro[cyclohexane-1,9′-pyrazino[1′,2′:1,5]pyrrolo[2,3-d]pyrimidin]-2′-yl)amino)cyclohexyl)methanesulfonamide] | 0.41 µM | 0.078 µM | 0.19 µM | 0.51 µM | 0.069 µM | 0.17 µM | 0.23 µM | 0.35 µM | 3.4 µM | 0.056 µM
NS(=O)(=O)c1cccc(Nc2ncc3cc4n(c3n2)C2(CCCCC2)CNC4=O)c1 [Compound 42, 3-((6′-oxo-7′,8′-dihydro-6′H-spiro[cyclohexane-1,9′-pyrazino[1′,2′:1,5]pyrrolo[2,3-d]pyrimidin]-2′-yl)amino)benzenesulfonamide] | 0.0088 µM | 0.0043 µM | 0.0078 µM | 0.012 µM | 0.0089 µM | 0.0075 µM | 0.0055 µM | 0.022 µM | 0.24 µM | 0.0012 µM
